Experiments:
Type in all cases: organism-based
Phaseolus vulgaris [1] = assay: Phytotoxicity against Phaseolus vulgaris (dry bean) assessed as visual crop injury at 840 g a.i./ha applied pre-emergence measured at 7 days post-emergence relative to control; conditions: in vivo, other, 168 h
Phaseolus vulgaris [2] = assay: Phytotoxicity against Phaseolus vulgaris (dry bean) assessed as visual crop injury at 420 g a.i./ha applied pre-emergence measured at 28 days post-emergence relative to control; conditions: in vivo, other, 672 h
Phaseolus vulgaris [3] = assay: Phytotoxicity against Phaseolus vulgaris (dry bean) assessed as visual crop injury at 420 g a.i./ha applied pre-emergence measured at 7 days post-emergence relative to control; conditions: in vivo, other, 168 h
Phaseolus vulgaris [4] = assay: Phytotoxicity against Phaseolus vulgaris (White dry beans) assessed as plant height at 840 g a.i./ha applied pre-emergence measured at 28 days post-emergence (reference value: 31 +/- 2 cm); conditions: in vivo, other, 672 h
Phaseolus vulgaris [5] = assay: Phytotoxicity against Phaseolus vulgaris (Otebo dry beans) assessed as plant height at 840 g a.i./ha applied pre-emergence measured at 28 days post-emergence (reference value: 31 +/- 2 cm); conditions: in vivo, other, 672 h
Phaseolus vulgaris [6] = assay: Phytotoxicity against Phaseolus vulgaris (Kidney dry beans) assessed as plant height at 840 g a.i./ha applied pre-emergence measured at 28 days post-emergence (reference value: 33 +/- 1 cm); conditions: in vivo, other, 672 h
Phaseolus vulgaris [7] = assay: Phytotoxicity against Phaseolus vulgaris (Cranberry dry beans) assessed as plant height at 840 g a.i./ha applied pre-emergence measured at 28 days post-emergence (reference value: 33 +/- 1 cm); conditions: in vivo, other, 672 h
Phaseolus vulgaris [8] = assay: Phytotoxicity against Phaseolus vulgaris (Black dry beans) assessed as plant height at 840 g a.i./ha applied pre-emergence measured at 28 days post-emergence (reference value: 28 +/- 1 cm); conditions: in vivo, other, 672 h
Phaseolus vulgaris [9] = assay: Phytotoxicity against Phaseolus vulgaris (Otebo dry beans) assessed as visual crop injury at 420 to 840 g a.i./ha applied pre-emergence measured at 28 days post-emergence relative to control; conditions: in vivo, other, 672 h
Phaseolus vulgaris [10] = assay: Phytotoxicity against Phaseolus vulgaris (Cranberry dry beans) assessed as visual crop injury at 420 to 840 g a.i./ha applied pre-emergence measured at 28 days post-emergence relative to control; conditions: in vivo, other, 672 h
Phaseolus vulgaris [11] = assay: Phytotoxicity against Phaseolus vulgaris (brown dry beans) assessed as visual crop injury at 420 to 840 g a.i./ha applied pre-emergence measured at 28 days post-emergence relative to control; conditions: in vivo, other, 672 h
Phaseolus vulgaris [12] = assay: Phytotoxicity against Phaseolus vulgaris (dry bean) assessed as visual crop injury at 840 g a.i./ha applied pre-emergence measured at 28 days post-emergence relative to control; conditions: in vivo, other, 672 h
Phaseolus vulgaris [13] = assay: Phytotoxicity against Phaseolus vulgaris (Black dry bean) assessed as reduction in shoot dry weight applied pre-emergence relative to control; set-up: scale not given: the % may be the effect or the level left; conditions: in vivo
Phaseolus vulgaris [14] = assay: Phytotoxicity against Phaseolus vulgaris (Pinto dry beans) assessed as plant height at 420 g a.i./ha applied pre-emergence measured at 28 days post-emergence (reference value: 32 +/- 1 cm); conditions: in vivo, other, 672 h
Phaseolus vulgaris [15] = assay: Phytotoxicity against Phaseolus vulgaris (Kidney dry beans) assessed as plant height at 420 g a.i./ha applied pre-emergence measured at 28 days post-emergence (reference value: 33 +/- 1 cm); conditions: in vivo, other, 672 h
Phaseolus vulgaris [16] = assay: Phytotoxicity against Phaseolus vulgaris (Cranberry dry beans) assessed as plant height at 420 g a.i./ha applied pre-emergence measured at 28 days post-emergence (reference value: 33 +/- 1 cm); conditions: in vivo, other, 672 h
Phaseolus vulgaris [17] = assay: Phytotoxicity against Phaseolus vulgaris (Black dry beans) assessed as plant height at 420 g a.i./ha applied pre-emergence measured at 28 days post-emergence (reference value: 28 +/- 1 cm); conditions: in vivo, other, 672 h
Phaseolus vulgaris [18] = assay: Phytotoxicity against Phaseolus vulgaris (White dry beans) assessed as visual crop injury at 420 to 840 g a.i./ha applied pre-emergence measured at 28 days post-emergence relative to control; conditions: in vivo, other, 672 h
Phaseolus vulgaris [19] = assay: Phytotoxicity against Phaseolus vulgaris (Yellow eye dry beans) assessed as yield at 840 g a.i./ha applied pre-emergence (reference value: 2 +/- 0.1 tons/ha); conditions: in vivo, other
Phaseolus vulgaris [20] = assay: Phytotoxicity against Phaseolus vulgaris (White dry beans) assessed as reduction in yield at 840 g a.i./ha applied pre-emergence relative to control; set-up: scale not given: the % may be the effect or the level left; conditions: in vivo, other
Phaseolus vulgaris [21] = assay: Phytotoxicity against Phaseolus vulgaris (Pinto dry beans) assessed as yield at 840 g a.i./ha applied pre-emergence (reference value: 3.1 +/- 0.1 tons/ha); conditions: in vivo, other
Phaseolus vulgaris [22] = assay: Phytotoxicity against Phaseolus vulgaris (Otebo dry beans) assessed as reduction in yield at 840 g a.i./ha applied pre-emergence relative to control; set-up: scale not given: the % may be the effect or the level left; conditions: in vivo, other
Phaseolus vulgaris [23] = assay: Phytotoxicity against Phaseolus vulgaris (Kidney dry beans) assessed as yield at 840 g a.i./ha applied pre-emergence (reference value: 1.9 +/- 0.1 tons/ha); conditions: in vivo, other
Phaseolus vulgaris [24] = assay: Phytotoxicity against Phaseolus vulgaris (Cranberry dry beans) assessed as reduction in yield at 840 g a.i./ha applied pre-emergence relative to control; set-up: scale not given: the % may be the effect or the level left; conditions: in vivo, other
Phaseolus vulgaris [25] = assay: Phytotoxicity against Phaseolus vulgaris (Brown dry beans) assessed as yield at 840 g a.i./ha applied pre-emergence (reference value: 2.3 +/- 0.1 tons/ha); conditions: in vivo, other
Phaseolus vulgaris [26] = assay: Phytotoxicity against Phaseolus vulgaris (White dry beans) assessed as yield at 420 g a.i./ha applied pre-emergence (reference value: 2.9 +/- 0.1 tons/ha); conditions: in vivo, other
Phaseolus vulgaris [27] = assay: Phytotoxicity against Phaseolus vulgaris (Cranberry dry beans) assessed as yield at 420 g a.i./ha applied pre-emergence (reference value: 2.7 +/- 0.1 tons/ha); conditions: in vivo, other
Phaseolus vulgaris [28] = assay: Phytotoxicity against Phaseolus vulgaris (Yellow eye dry beans) assessed as reduction in shoot dry weight at 840 g a.i./ha applied pre-emergence measured at 42 days post-emergence relative to control; set-up: scale not given: the % may be the effect or the level left; conditions: in vivo, other, 1008 h
Phaseolus vulgaris [29] = assay: Phytotoxicity against Phaseolus vulgaris (Pinto dry beans) assessed as shoot dry weight at 840 g a.i./ha applied pre-emergence measured at 42 days post-emergence (reference value: 134 +/- 11 g/m); conditions: in vivo, other, 1008 h
Phaseolus vulgaris [30] = assay: Phytotoxicity against Phaseolus vulgaris (Black dry beans) assessed as reduction in shoot dry weight at 840 g a.i./ha applied pre-emergence measured at 42 days post-emergence relative to control; set-up: scale not given: the % may be the effect or the level left; conditions: in vivo, other, 1008 h
Phaseolus vulgaris [31] = assay: Phytotoxicity against Phaseolus vulgaris (Yellow eye dry beans) assessed as shoot dry weight at 420 g a.i./ha applied pre-emergence measured at 42 days post-emergence (reference value: 142 +/- 8 g/m); conditions: in vivo, other, 1008 h
Phaseolus vulgaris [32] = assay: Phytotoxicity against Phaseolus vulgaris (White dry beans) assessed as shoot dry weight at 420 g a.i./ha applied pre-emergence measured at 42 days post-emergence (reference value: 135 +/- 11 g/m); conditions: in vivo, other, 1008 h
Phaseolus vulgaris [33] = assay: Phytotoxicity against Phaseolus vulgaris (Kidney dry beans) assessed as shoot dry weight at 420 g a.i./ha applied pre-emergence measured at 42 days post-emergence (reference value: 133 +/- 8 g/m); conditions: in vivo, other, 1008 h
Phaseolus vulgaris [34] = assay: Phytotoxicity against Phaseolus vulgaris (Brown dry beans) assessed as shoot dry weight at 420 g a.i./ha applied pre-emergence measured at 42 days post-emergence (reference value: 123 +/- 7 g/m); conditions: in vivo, other, 1008 h
Phaseolus vulgaris [35] = assay: Phytotoxicity against Phaseolus vulgaris (Yellow eye dry beans) assessed as plant height at 840 g a.i./ha applied pre-emergence measured at 28 days post-emergence (reference value: 33 +/- 1 cm); conditions: in vivo, other, 672 h

Which results are given for `Cc1nn(-c2cc(NS(C)(=O)=O)c(Cl)cc2Cl)c(=O)n1C(F)F` [SULFENTRAZONE]?
Activity (Phaseolus vulgaris [1]): 26%; Activity (Phaseolus vulgaris [2]): 7%; Activity (Phaseolus vulgaris [3]): 9%; Activity (Phaseolus vulgaris [4]): 20 cm; Activity (Phaseolus vulgaris [5]): 23 cm; Activity (Phaseolus vulgaris [6]): 25 cm; Activity (Phaseolus vulgaris [7]): 21 cm; Activity (Phaseolus vulgaris [8]): 21 cm; Activity (Phaseolus vulgaris [9]): 13.9%; Activity (Phaseolus vulgaris [10]): 17.6%; Activity (Phaseolus vulgaris [11]): 7%; Activity (Phaseolus vulgaris [12]): 22%; Activity (Phaseolus vulgaris [13]): 16%; Activity (Phaseolus vulgaris [14]): 30 cm; Activity (Phaseolus vulgaris [15]): 29 cm; Activity (Phaseolus vulgaris [16]): 28 cm; Activity (Phaseolus vulgaris [17]): 26 cm; Activity (Phaseolus vulgaris [18]): 17.9%; Crop_yield (Phaseolus vulgaris [19]): 1.4 tons/ha; Activity (Phaseolus vulgaris [20]): 52%; Crop_yield (Phaseolus vulgaris [21]): 2.7 tons/ha; Activity (Phaseolus vulgaris [22]): 26%; Crop_yield (Phaseolus vulgaris [23]): 1.6 tons/ha; Activity (Phaseolus vulgaris [24]): 44%; Crop_yield (Phaseolus vulgaris [25]): 2.1 tons/ha; Crop_yield (Phaseolus vulgaris [26]): 2.4 tons/ha; Crop_yield (Phaseolus vulgaris [27]): 2.4 tons/ha; Activity (Phaseolus vulgaris [28]): 40%; Activity (Phaseolus vulgaris [29]): 128 g/m; Activity (Phaseolus vulgaris [30]): 35%; Activity (Phaseolus vulgaris [31]): 134 g/m; Activity (Phaseolus vulgaris [32]): 130 g/m; Activity (Phaseolus vulgaris [33]): 128 g/m; Activity (Phaseolus vulgaris [34]): 134 g/m; Activity (Phaseolus vulgaris [35]): 25 cm
